{"source": "patent US7494643B2", "about": "“Method and topical composition for the treatment of hyperpigmented skin” (priority 2003, dated 2009)", "origin": "cited, not measured here", "key": {"melanocytes": {"tested_on": "melanocytes", "details": "cited from earlier work"}, "[1]": {"tested_on": "tyrosinase isolated from black goldfish and standard goldfish", "details": "cited from earlier work"}, "cultured pigment cells": {"tested_on": "cultured pigment cells", "details": "cited from earlier work"}, "black goldfish": {"tested_on": "black goldfish", "details": "ingested by the fish; cited from earlier work"}, "HIV": {"tested_on": "HIV", "details": "NCI primary screen; cited from earlier work"}, "human-tyrosinase": {"target": "T1, human-tyrosinase (Homo sapiens, UniProt P14679)", "T1 sequence (P14679 19-529)": "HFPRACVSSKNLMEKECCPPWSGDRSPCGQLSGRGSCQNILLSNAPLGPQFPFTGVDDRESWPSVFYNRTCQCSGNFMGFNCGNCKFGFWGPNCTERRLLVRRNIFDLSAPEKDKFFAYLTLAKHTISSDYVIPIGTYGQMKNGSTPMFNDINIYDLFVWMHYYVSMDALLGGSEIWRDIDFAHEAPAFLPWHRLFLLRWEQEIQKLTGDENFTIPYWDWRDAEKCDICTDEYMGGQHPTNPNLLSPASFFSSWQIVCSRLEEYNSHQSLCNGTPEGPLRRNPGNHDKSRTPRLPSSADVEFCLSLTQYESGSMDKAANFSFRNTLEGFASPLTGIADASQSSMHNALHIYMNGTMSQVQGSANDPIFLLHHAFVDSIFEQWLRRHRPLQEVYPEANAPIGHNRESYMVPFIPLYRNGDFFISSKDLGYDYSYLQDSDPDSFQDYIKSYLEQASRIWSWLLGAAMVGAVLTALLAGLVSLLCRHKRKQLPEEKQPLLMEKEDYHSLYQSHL", "details": "competitive inhibition; cited from earlier work"}, "mushroom-tyrosinases": {"tested_on": "mushroom-tyrosinases", "details": "competitive inhibition; cited from earlier work"}}, "data": [{"compound": "Oc1ccc(O)cc1", "note": "[hydroquinone]", "values": [{"measurement": "cytotoxicity (destroys the cellular walls of the melanocytes)", "setting": "melanocytes", "value": "cytotoxic"}]}, {"compound": "O=c1cc(CO)occ1O", "note": "[Kojic acid]", "values": [{"measurement": "inhibition of tyrosinase", "setting": "[1]", "value": "inhibit tyrosinase"}, {"measurement": "suppression of melanogenesis", "setting": "cultured pigment cells", "value": "suppress melanogenesis"}, {"measurement": "colour of black goldfish after ingestion", "setting": "black goldfish", "value": "almost yellow-brown"}]}, {"compound": "Vismiaphenone D", "values": [{"measurement": "HIV-inhibitory activity", "setting": "HIV", "value": "HIV-inhibitory activity"}]}, {"compound": "OC[C@H]1O[C@@H](Oc2ccc(O)cc2)[C@H](O)[C@@H](O)[C@@H]1O", "note": "[Arbutin]", "values": [{"measurement": "inhibition of enzyme activity of human tyrosinase", "setting": "human-tyrosinase", "value": "inhibits enzyme activity"}, {"measurement": "inhibition of enzyme activity of mushroom tyrosinase", "setting": "mushroom-tyrosinases", "value": "inhibits enzyme activity"}]}]}
